From paper PMC5681660, “Reduced hepatitis B and D viral entry using clinically applied drugs as novel inhibitors of the bile acid transporter NTCP” (Scientific Reports, 2017)
Structures can show the parent of a compound that is named as a salt. Where two headings read alike, the source gives them in different places.

How the values were obtained:
human NTCP [1] = molecular target: T1, human NTCP (Homo sapiens, UniProt Q14973); experiment: Screening taurocholate uptake assay (96-well, [14C]taurocholate, 10 µM drug)
T1 sequence (Q14973 1-349): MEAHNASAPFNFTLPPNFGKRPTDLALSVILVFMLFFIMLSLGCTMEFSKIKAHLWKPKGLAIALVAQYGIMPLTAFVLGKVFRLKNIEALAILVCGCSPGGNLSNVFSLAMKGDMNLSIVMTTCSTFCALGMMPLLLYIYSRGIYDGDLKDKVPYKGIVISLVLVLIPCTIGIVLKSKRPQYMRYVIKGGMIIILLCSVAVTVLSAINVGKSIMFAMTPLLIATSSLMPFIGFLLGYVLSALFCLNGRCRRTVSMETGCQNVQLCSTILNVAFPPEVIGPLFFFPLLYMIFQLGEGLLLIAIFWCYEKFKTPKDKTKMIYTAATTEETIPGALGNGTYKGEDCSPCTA

human NTCP [2] = molecular target: T1, human NTCP; experiment: Screening fluorescent competitive Myrcludex B-FITC binding assay (96-well, 10 µM drug)
[3] = Prestwick library screen, 10 µM drug, B-score of taurocholate uptake
[4] = combined ranking from functional and binding assay B-scores
[5] = Prestwick library screen, 10 µM drug, B-score of Myrcludex B-FITC binding
[6] = Prestwick library screen, taurocholate uptake, 10 µM drug
[7] = ranking score beside the functional and binding assay B-scores of the screen
[8] = Prestwick library screen, Myrcludex B-FITC binding, 10 µM drug
[9] = combined ranking from functional and binding screening assays
[10] = screen, 10 µM drug, taurocholate uptake
[11] = screen, 10 µM drug, Myrcludex B-FITC binding

Row | B-score functional assay (human NTCP [1]; [3]) | Ranking score (human NTCP [1]; [4]) | B-score binding assay (human NTCP [2]; [5]) | B-score functional assay (human NTCP [1]; [6]) | Ranking score (human NTCP [1]; [7]) | B-score binding assay (human NTCP [2]; [8]) | SMILES | also measured
1 | 0.276 | 895.497 | 0.677 | – | – | – | CC(C)C(=O)c1c(C(C)C)nn2ccccc12 [Ibudilast] | –
2 | – | – | – | – | – | – | O=P1(NCCCl)OCCCN1CCCl (stereo not drawn) [Ifosfamide] | Ranking score (human NTCP [1]; [9]): 334.739; B-score functional assay (human NTCP [1]; [10]): 0.023; B-score binding assay (human NTCP [2]; [11]): -1.438
3 | – | – | – | – | – | – | CC(C)Cn1cnc2c(N)nc3ccccc3c21 [Imiquimod] | B-score functional assay (human NTCP [1]): -0.019; Ranking score (human NTCP [1]): 554.076; B-score binding assay (human NTCP [2]): -0.174
4 | – | – | – | -0.197 | 710.601 | 1.008 | CC(C)(C)NC(=O)[C@@H]1CN(Cc2cccnc2)CCN1C[C@@H](O)C[C@@H](Cc1ccccc1)C(=O)N[C@H]1c2ccccc2C[C@H]1O [Indinavir sulfate] | –
5 | 0.788 | 897.998 | 0.209 | – | – | – | CC(C(=O)O)c1ccc(N2Cc3ccccc3C2=O)cc1 (stereo not drawn) [Indoprofen] | –
6 | – | – | – | 2.519 | 831.882 | -0.069 | O=C(CCCCC(=O)Nc1c(I)cc(I)c(C(=O)O)c1I)Nc1c(I)cc(I)c(C(=O)O)c1I [Iodipamide] | –
7 | – | – | – | 0.198 | 748.519 | 0.046 | CC(=O)N(CC(O)CO)c1c(I)c(C(=O)NCC(O)CO)c(I)c(C(=O)NCC(O)CO)c1I (stereo not drawn) [Iohexol] | –
8 | – | – | – | – | – | – | CCC(Cc1c(I)cc(I)c(N)c1I)C(=O)O (stereo not drawn) [Iopanoic acid] | Ranking score (human NTCP [1]; [9]): 395.161; B-score functional assay (human NTCP [1]; [10]): -1.985; B-score binding assay (human NTCP [2]; [11]): 1.953
9 | – | – | – | – | – | – | O=C(NCC(O)CO)c1c(I)c(C(=O)NCC(O)CO)c(I)c(N(CCO)C(=O)CO)c1I (stereo not drawn) [Ioversol] | B-score functional assay (human NTCP [1]): 1.843; Ranking score (human NTCP [1]): 1044.38; B-score binding assay (human NTCP [2]): 0.541
10 | – | – | – | -0.19 | 769.829 | 2.105 | CNC(=O)c1c(I)c(C(=O)NCC(=O)Nc2c(I)c(C(=O)O)c(I)c(C(=O)NCCO)c2I)c(I)c(N(C)C(C)=O)c1I [Ioxaglic acid] | –
11 | 1.921 | 1093.42 | 0.854 | – | – | – | O=C1c2ccccc2S(=O)(=O)N1CCCCN1CCN(c2ncccn2)CC1 [Ipsapirone] | –
12 | – | – | – | 5.029 | 750.144 | -0.312 | Nc1nc(N)nc(-c2cc(Cl)ccc2Cl)n1 [Irsogladine maleate] | –
13 | 0.797 | 1126.41 | 2.982 | – | – | – | Clc1ccc(C(Cn2ccnc2)OCc2c(Cl)cccc2Cl)c(Cl)c1 (stereo not drawn) [Isoconazole] | –
14 | – | – | – | – | – | – | CNC(C)CCC=C(C)C.CNC(C)CCC=C(C)C.O=C(O)[C@@H](O)[C@H](O)[C@H](O)[C@@H](O)C(=O)O [Isometheptene mucate] | Ranking score (human NTCP [1]; [9]): 319.923; B-score functional assay (human NTCP [1]; [10]): -0.726; B-score binding assay (human NTCP [2]; [11]): -0.672
15 | 1.386 | 1117.92 | 1.337 | – | – | – | NNC(=O)c1ccncc1 [Isoniazid] | –
16 | – | – | – | 0.036 | 698.928 | 0.056 | CC(C)[N+](C)(CCC(C(N)=O)(c1ccccc1)c1ccccc1)C(C)C [Isopropamide iodide] | –
17 | – | – | – | – | – | – | O=[N+]([O-])O[C@H]1CO[C@H]2[C@@H]1OC[C@H]2O[N+](=O)[O-] [Isosorbide dinitrate] | B-score functional assay (human NTCP [1]): 2.183; Ranking score (human NTCP [1]): 973.944; B-score binding assay (human NTCP [2]): 0.166
18 | 1.391 | 933.01 | 0.145 | – | – | – | Cc1cc(NC(=O)C2=C(O)c3ccccc3S(=O)(=O)N2C)no1 [Isoxicam] | –
19 | 0.459 | 888.476 | 0.408 | – | – | – | CC(COc1ccccc1)NC(C)C(O)c1ccc(O)cc1 (stereo not drawn) [Isoxsuprine hydrochloride] | –

Row | SMILES | B-score functional assay (human NTCP [1]; [3]) | Ranking score (human NTCP [1]; [4]) | B-score binding assay (human NTCP [2]; [5]) | B-score functional assay (human NTCP [1]; [6]) | Ranking score (human NTCP [1]; [7]) | B-score binding assay (human NTCP [2]; [8]) | also measured
20 | CCCCCCCN(CC)CCCC(O)c1ccc(NS(C)(=O)=O)cc1.CCCCCCCN(CC)CCCC(O)c1ccc(NS(C)(=O)=O)cc1.O=C(O)/C=C/C(=O)O (stereo not drawn) [Ibutilide fumarate] | – | – | – | 0.035 | 835.048 | 0.907 | –
21 | CC(C(O)c1ccc(O)cc1)N1CCC(Cc2ccccc2)CC1.CC(C(O)c1ccc(O)cc1)N1CCC(Cc2ccccc2)CC1.O=C(O)C(O)C(O)C(=O)O (stereo not drawn) [Ifenprodil tartrate] | – | – | – | 1.465 | 727.635 | -0.263 | –
22 | O=C(NCNC(=O)NC1C(=O)NC(=O)N1CO)NC1C(=O)NC(=O)N1CO (stereo not drawn) [Imidurea] | 1.058 | 960.608 | 0.346 | – | – | – | –
23 | CN[C@@H]1C[C@@H](c2ccc(Cl)c(Cl)c2)c2ccccc21 [Indatraline hydrochloride] | – | – | – | 0.152 | 814.16 | 0.336 | –
